# Paper PMC10688023 (Journal of chemical information and modeling, 2023)
# Where a name gives a salt, the structure may show the parent alone. Read-outs that look alike come from different tables or passages of the source.
# Experiments:
# recombinant human BChE [1] = target: T1, recombinant human BChE (Homo sapiens, UniProt P06276)
# recombinant human BChE [2] = target: T1, recombinant human BChE; format: biochemical; details: for BChE inhibitory effect (activity call): active in colorimetric assay and in fluorescence assay
# recombinant human AChE [3] = target: T2, recombinant human AChE (Homo sapiens, UniProt P22303); details: fluorescence-based assay
# T2 sequence (P22303 32-614): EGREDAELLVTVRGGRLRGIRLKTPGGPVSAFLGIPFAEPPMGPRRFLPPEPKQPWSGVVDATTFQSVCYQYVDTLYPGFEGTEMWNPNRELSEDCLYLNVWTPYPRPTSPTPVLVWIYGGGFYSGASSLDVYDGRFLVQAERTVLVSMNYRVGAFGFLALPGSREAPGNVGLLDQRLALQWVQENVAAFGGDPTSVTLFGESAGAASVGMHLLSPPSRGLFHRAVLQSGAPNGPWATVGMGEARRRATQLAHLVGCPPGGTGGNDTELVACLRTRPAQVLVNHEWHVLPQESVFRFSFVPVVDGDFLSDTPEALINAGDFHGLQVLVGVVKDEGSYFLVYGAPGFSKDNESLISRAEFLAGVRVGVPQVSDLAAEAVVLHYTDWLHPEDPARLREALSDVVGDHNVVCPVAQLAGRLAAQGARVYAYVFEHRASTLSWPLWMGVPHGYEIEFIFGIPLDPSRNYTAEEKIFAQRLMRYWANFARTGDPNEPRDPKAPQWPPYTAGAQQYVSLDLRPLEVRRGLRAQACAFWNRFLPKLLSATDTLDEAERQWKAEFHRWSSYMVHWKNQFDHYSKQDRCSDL
# recombinant human AChE [4] = target: T2, recombinant human AChE
# BChE = details: cited from earlier work
# AChE = details: ref [8], cited from earlier work
# T1 sequence (P06276 29-602): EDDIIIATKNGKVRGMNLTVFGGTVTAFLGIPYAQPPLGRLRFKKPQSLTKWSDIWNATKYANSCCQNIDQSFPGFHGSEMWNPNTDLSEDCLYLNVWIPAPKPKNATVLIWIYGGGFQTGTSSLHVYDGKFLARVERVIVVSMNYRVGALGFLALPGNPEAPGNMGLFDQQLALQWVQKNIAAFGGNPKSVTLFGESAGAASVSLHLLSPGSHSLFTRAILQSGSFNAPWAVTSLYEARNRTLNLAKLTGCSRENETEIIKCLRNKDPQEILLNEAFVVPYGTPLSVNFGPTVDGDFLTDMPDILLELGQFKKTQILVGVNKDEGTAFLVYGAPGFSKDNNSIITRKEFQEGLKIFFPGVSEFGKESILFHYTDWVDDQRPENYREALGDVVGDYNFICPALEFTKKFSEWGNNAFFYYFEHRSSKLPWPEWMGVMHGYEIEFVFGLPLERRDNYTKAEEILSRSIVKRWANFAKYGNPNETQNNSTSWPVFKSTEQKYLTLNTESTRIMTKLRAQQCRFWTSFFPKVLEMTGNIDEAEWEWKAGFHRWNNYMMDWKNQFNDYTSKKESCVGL
compound,measurement,setting,value
Cc1ccc(C)c(-n2cc(CN(C)CCO)c(-c3ccccc3)n2)c1 [NCGC00425816],selectivity index (SI),recombinant human BChE [1]; BChE over AChE,1250-2351
same,"efficacy, BChE inhibition",recombinant human BChE [1]; colorimetric assay,98.9%±3.21
same,IC50,"recombinant human BChE [1]; read-out: IC50, BChE inhibition, colorimetric assay",40 ± 10 nM
same,"efficacy, BChE inhibition",recombinant human BChE [2]; fluorescence-based assay,109%±6.76
same,IC50,"recombinant human BChE [2]; read-out: IC50, BChE inhibition, fluorescence-based assay",80 ± 10 nM
O=C(NCc1ccnc(N2CCCC2)c1)C1CCCN(c2cc(-n3cncn3)ncn2)C1 (stereo not drawn) [NCGC00526830],"efficacy, AChE inhibition",recombinant human AChE [3],116%±3.24
same,IC50,"recombinant human AChE [3]; read-out: IC50, AChE inhibition",130 ± 20 nM
same,selectivity index (SI),recombinant human AChE [4]; AChE over BChE,79-164
same,"efficacy, AChE inhibition",recombinant human AChE [4]; colorimetric assay,78%±4.18
same,IC50,"recombinant human AChE [4]; read-out: IC50, AChE inhibition, colorimetric assay",270 nM
CCN(CCCc1ccccc1)CCCc1ccccc1 [alverine citrate],BChE inhibitory effect (activity call),recombinant human BChE [2],confirmed by both assays
CN(C)[C@@H](CCOc1cccc2ccccc12)c1ccccc1 [dapoxetine HCl],BChE inhibitory effect (activity call),recombinant human BChE [2],confirmed by both assays
CCN(CC)C(C)CN1c2ccccc2Sc2ccccc21 (stereo not drawn) [ethopropazine],IC50,"BChE; read-out: IC50, BChE inhibition, ref [41], [42]",210 to 300 nM
same,selectivity for BChE over AChE,BChE; ref [39],~ 1000 fold
COc1ccc2c3c1O[C@H]1C[C@@H](O)C=C[C@@]31CCN(C)C2 [galantamine],IC50,"AChE; read-out: IC50, AChE inhibition, [40]",790 nM
same,selective inhibition of AChE activity versus BChE,AChE,50 fold
CCN(CC)CCOC(=O)C(Cc1cccc2ccccc12)CC1CCCO1 (stereo not drawn) [nafronyl oxalate],BChE inhibitory effect (activity call),recombinant human BChE [2],confirmed by both assays
CC(CCc1ccccc1)NC(C)C(O)c1ccc(O)cc1 (stereo not drawn) [nylidrin hydrochloride],BChE inhibitory effect (activity call),recombinant human BChE [2],confirmed by both assays
